Read-outs that look alike come from different tables or passages of the source.
Key:
[1] = target: T1, LasR protein (Pseudomonas aeruginosa, UniProt P25084); experiment: Activation of the LasR protein by optical isomers
T1 construct: expressed in transfected cells; host or cells: E. coli MG4 containing pKDT17 (plac-lasR plus lasB::lacZ reporter)

[2] = tested on: V. fischeri luminescence genes (LuxR) in E. coli VJS533 (pHV200I−); settings: literature (Eberhard et al. 1986), cited from earlier work
[3] = tested on: conjugal transfer genes in Agrobacterium tumefaciens; settings: literature (Zhang et al. 1993); cited from earlier work
[4] = tested on: lasB promoter activity in E. coli MG4 (pKDT17, lasR + lasB::lacZ); experiment: P. aeruginosa autoinducer bioassay (lasB::lacZ β-galactosidase reporter); assay type: cell-based; settings: for β-galactosidase (lasB::lacZ promoter activity): average of four experiments ± range
Description: (§1) For production of PAI, cultures of P. aeruginosa PAO1 or E. coli TB1 containing pLasI-1 were grown to the late-logarithmic phase in A medium (Maniatis, T., Fritsch, E. F., and Sambrook, J. (1992) Molecular Cloning: A Laboratory Manual, ed. Nolan C. (Cold Spring Harbor Laboratory, Cold Spring Harbor, N.Y.), 2nd Ed) supplemented with 0.4% glucose, 0.05% yeast extract, and 1 mM MgSO4 with shaking at 37° C., unless otherwise specified. For subsequent use in autoinducer bioassays, E. coli MG4 containing pKDT17 was grown in supplemented A medium at 30° C. with shaking, and E. coli VJS533 containing pHV200I^− was grown in L broth (Silhavy, T. J., Berman, M. L. and Enquist, L. W. (1984) Experiments with Gene Fusions (Cold Spring Harbor Lab., Cold Spring Harbor, N.Y.), P. 217) at 30° C. with shaking. For plasmid screening and maintenance, ampicillin (100 μg/ml) was included in E. coli cultures, and carbenicillin (200 ug/ml) was included in cultures of P. aeruginosa.
For the bioassay, overnight cultures of E. coli containing the lasB-promoter reporter, pKDT17 were diluted in supplemented A mediun to an optical density of 0.1 at 660 nm, and stored on ice. Each bioassay consisted of 2 ml of the cell suspension plus the test sample. After 5.5 h at 30° C. with shaking, β-galactosidase activity was measured by the CHCl3-sodium dodecyl sulfate method described by Miller (Miller, J. A. (1976) Experiments in Molecular Genetics (Cold Spring Harbor Lab., Cold Spring Harbor, N.Y.), pp. 352-355). As described in Example 1, there was a linear dose response to autoinducer in this bioassay. Without addition of autoinducer, β-galactosidase activities were 25±10 Miller units, and with saturating amounts of autoinducer, β-galactosidase activities were 1300±200 Miller units. A unit of P. aeruginosa autoinducer activity is defined as that amount required to achieve ½-saturation in the bioassay.

[5] = tested on: V. fischeri luminescence genes (LuxR) in E. coli VJS533 (pHV200I−); experiment: V. fischeri autoinducer bioassay (luminescence); assay type: cell-based
Description: as §1
The quantitative assay for VAI was based on those described elsewhere (Kaplan, H. B. and Greenberg, E. P. (1985) J. Bacteriol. 163, 1210-1214; Bainton, N. J., Bycroft, B. W., Chhabra, S. R., Stead, P., Gledhill, L., Hill, P. J., Rees, C. E. D., Winson, M. K., Salmond, G. P. C., Stewart, G. S. A. B. and Williams, P. (1992) Gene 116, 87-91; Nealson, K. H. (1977) Arch. Microbiol. 112, 73-79). E. coli VJS533 containing pHV200I^− was used to test for V. fischeri autoinducer activity. The plasmid, pHV200I^− contains all of the V. fischeri genes necessary for autoinducible luminescence in E. coli, however, the gene encoding autoinducer synthase, luxI, is inactivated such that E. coli containing pHV200I^− is not luminescent without addition of VAI. Overnight cultures of E. coli containing pHV200I^− were diluted to an optical density of 0.01 at 660 nm in an assay medium consisting of 0.05% tryptone, 0.03% glycerol, 100 mM NaCl, 50 mM MgSO4, and 10 mM potassium phosphate, pH 7. […] After 3 hours at room temperature, luminescence was measured by using a Beckman LS 1800 Scintillation Counter that was set for single photon counting. […]

T1 sequence (P25084 whole entry): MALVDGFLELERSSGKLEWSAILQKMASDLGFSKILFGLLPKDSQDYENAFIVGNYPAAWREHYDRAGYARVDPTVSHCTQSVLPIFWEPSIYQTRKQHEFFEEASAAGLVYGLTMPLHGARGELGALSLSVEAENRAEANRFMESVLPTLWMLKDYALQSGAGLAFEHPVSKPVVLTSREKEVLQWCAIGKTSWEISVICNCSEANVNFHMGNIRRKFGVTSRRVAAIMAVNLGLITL

CCCCCCCCCC(=O)CC(=O)N[C@H]1CCOC1=O (single isomer, unassigned) [D-isomer, N-(3-oxododecanoyl)homoserine lactone]
activity of the isomer (activation of the LasR protein) [1]: small amount of activity
inhibition of the ability of the L-isomer to activate the LasR protein ([1]; by attaching to the autoinducer binding domain of LasR): can inhibit

CCCCCC(=O)CC(=O)NC1CCOC1=O (centres unmarked) [AAI, N-(3-oxooctanoyl)homoserine lactone]
activity with V. fischeri LuxR / luminescence genes [2]: shows activity
activity with V. fischeri LuxR / luminescence genes ([2]; listed as N-(3-oxooctanoyl)homoserine lactone): some activity
activity as the A. tumefaciens autoinducer [3]: shows activity
activity as P. aeruginosa autoinducer (inducer of lasB promoter), in words [4]: considerable activity
β-galactosidase (lasB::lacZ promoter activity) ([4]; 50 nM autoinducer added): 56 +/− 5 Miller units
β-galactosidase (lasB::lacZ promoter activity) ([4]; 500 nM autoinducer added): 733 +/− 50 Miller units
concentration required for activity as the P. aeruginosa autoinducer, compared with PAI ([4]; relative to PAI): higher
maximal response as P. aeruginosa autoinducer, compared with PAI ([4]; relative to PAI): lower

CCCCCCCCCC(=O)CC(=O)NC1CCOC1=O [N-(3-oxododecanoyl) L-homoserine lactone, N-(3-oxododecanoyl)homoserine lactone]
activity of the isomer (activation of the LasR protein) [1]: active form
VAI activity (induction of luminescence) of HPLC peaks ([5]; HPLC fractions of PAI peaks): no significant VAI activity
activity as P. aeruginosa autoinducer (inducer of lasB promoter), in words [4]: biologically active
EC50 ([4]; Escherichia coli, read-out: half-maximal response in P. aeruginosa autoinducer bioassay): 0.003 to 0.005 µM

CCCC(=O)CC(=O)N[C@H]1CCOC1=O [VAI, N-(3-oxohexanoyl)homoserine lactone]
concentration giving maximal response in the V. fischeri autoinducer bioassay [5]: about 50 nM
EC50 ([5]; synthetic VAI standard curve, read-out: half-maximal response in V. fischeri autoinducer bioassay (one unit of activity)): ~0.025 µM
activity as P. aeruginosa autoinducer (inducer of lasB promoter), in words [4]: did not show any detectable activity
β-galactosidase (lasB::lacZ promoter activity) ([4]; 50 nM autoinducer added): 33 +/− 3 Miller units
β-galactosidase (lasB::lacZ promoter activity) ([4]; 500 nM autoinducer added): 34 +/− 1 Miller units
activity in the P. aeruginosa autoinducer bioassay ([4]; concentrations as high as 1 uM): no detectable activity
